Experimental data: US7384959B2, “Treatment of convulsive states” (priority 1999, dated 2008)

Tests used:
rat = test: Irwin Observation Test in the rat, subcutaneous route; assay type: in vivo; design: key to Mydriasis / Hyperthermia / Excitation: +=slight; ++=moderate
Text: The following Tables report the results of the Irwin, PTZ and barbital interaction (sleep induction) tests. Description of these tests may be found in Psychopharmacologica, 13:222-257 (1968), Krall et al, Epilepsia 19:409-428 (1978), and Simon et al, J. Pharmacol, Paris 13:241-252 (1982). See also Roux et al, Phoenix international Pharmacology Reports Nos. D30.2061/2 and D99.021/2.
In Table 1, the following apply: +=slight; ++=moderate
(X/N) indicates the number of rats showing the symptoms.
Observations were performed at 15, 30, 60, 120, 180 minutes and 24 hours after administration.
Hyperthermia and mydriasis were evaluated by comparison of the mean scores obtained in treated and control animals.

[1] = after intravenous dosing; Ding et al 1997; cited from earlier work

COC(=O)[C@@H](c1ccccc1)[C@@H]1CCCCN1 [l-MPH, l-threo-Methylphenidate]
Irwin test observation (cell wraps: No change) (rat; 2 mg/kg s.c., rat): No | Mydriasis (rat; 4 mg/kg s.c., at 30′): Mydriasis + | Excitation (rat; 8 mg/kg s.c., at 30′): Excitation + | Excitation, number of rats showing the symptoms (X/N) (rat; 8 mg/kg s.c., at 30′): (2/3) at 30′ | Mydriasis (rat; 8 mg/kg s.c., at 30′): Mydriasis + | Stereotypies (sniffing), number of rats showing the symptoms (X/N) (rat; 8 mg/kg s.c., at 30′): (1/3) at 30′ | Stereotypies (sniffing), number of rats showing the symptoms (X/N) (rat; 16 mg/kg s.c., 30′ → 120′): (3/3) 30′ → 120′ | Excitation (rat; 16 mg/kg s.c., 60′ → 120′): Excitation + | Excitation, number of rats showing the symptoms (X/N) (rat; 16 mg/kg s.c., 60′ → 120′): (2/3) 60′ → 120′ | Stereotypies (head movements), number of rats showing the symptoms (X/N) (rat; 16 mg/kg s.c., 60′ → 120′): (1/3) 60′ → 120′ | Mydriasis (rat; 16 mg/kg s.c., at 30′): Mydriasis + at 30′ | Excitation (rat; 32 mg/kg s.c., 15′ → 30′): Excitation + | Excitation, number of rats showing the symptoms (X/N) (rat; 32 mg/kg s.c., 15′ → 30′): (3/3) 15′ → 30′ | ↑ Reactivity to touch, number of rats showing the symptoms (X/N) (rat; 32 mg/kg s.c., 15′ → 30′): (3/3) 15′ → 30′ | Mydriasis (rat; 32 mg/kg s.c., 15′ → 120′): (++ 15′ → | Stereotypies (sniffing), number of rats showing the symptoms (X/N) (rat; 32 mg/kg s.c., 15′ → 120′): (3/3) | ↑ Fear, number of rats showing the symptoms (X/N) (rat; 32 mg/kg s.c., 15′ → 120′): (3/3) | Hyperthermia (rat; 32 mg/kg s.c., at 30′ and 120′): Hyperthermia + | Mydriasis (rat; 32 mg/kg s.c., at 180′): (+ at 180′) | Irwin test observations at higher doses (rat; 64, 128 and 256 mg/kg, s.c., rat): all rats exhibited further characteristics including sedation, fore-paw treading, stereotypes (head movements) and decreased muscle tone | signs of stimulation in the Irwin profile (rat; at doses having anti-convulsant effects): Slight signs of stimulation were noted | sedation in the Irwin profile (rat; at the doses used in the PTZ test): sedation was not noted | detection in the brain [1]: detected in the brain
